Assay: recombinant barcode read abundance after kanamycin selection (control-corrected) (log10(CPM+1)); higher = more efficient recombination; sequences stand for … in AGTGCAGAGAAAATCGGCCAGTTTTCTCTGCCTGCAGTCCGCATGCCGT…AGATTTATGCAGCGGACTGCCTTTCTCCCAAAGTGATAAACCGGACAGTATCATGGACCGGTTTTCCCGGTAATCCGTATTTGCAAGGTTGGTTTCACT; site = the 11-nt target
In short: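 Recombination efficiency comes from barcode counts at recombinant junctions, converted to counts per million, averaged and corrected against the control. Values appear as log10(CPM+1). They were obtained from a pooled E. coli screen in which each oligo paired a target with an IS621 bridge RNA target-binding loop, and cells were plated in duplicate on chloramphenicol/ampicillin LB agar or on chloramphenicol/ampicillin/kanamycin with 0.1 mM IPTG.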
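Note: IS621 recombinase and bridge RNA in Escherichia coli cells.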

TCGGACCCTTGGGTTCTAACCTGTTGCGA (site TCGTACCCTTC)
recombinant barcode read abundance (log10): 0.23

TCGGAGTCTTGGGTTCTAACCTGTTGCCG (site TCGGAGTCTCA)
recombinant barcode read abundance (log10): 0.0935

TCGGAGTCTTGGGTTCTAACCTGTTGCCG (site TCGGAGTCTCG)
recombinant barcode read abundance (log10): 1.17

TCGGAGTCTTGGGTTCTAACCTGTTGCGT (site TCGGAGTCTAA)
recombinant barcode read abundance (log10): 0.499

TCGGAGTCTTGGGTTCTAACCTGTTGCGT (site TCGGAGTCTAC)
recombinant barcode read abundance (log10): 2.55

TCGGAGTCTTGGGTTCTAACCTGTTGCGT (site TCGGAGTCTAG)
recombinant barcode read abundance (log10): 0.969

TCGGAGTCTTGGGTTCTAACCTGTTGCGT (site TCGGAGTCTAT)
recombinant barcode read abundance (log10): 2.39

TCGGATACTTGGGTTCTAACCTGTTGCAT (site TCGGATACTAA)
recombinant barcode read abundance (log10): 0.31

TCGGATACTTGGGTTCTAACCTGTTGCAT (site TCGGATACTAC)
recombinant barcode read abundance (log10): 0.0629

TCGGATACTTGGGTTCTAACCTGTTGCAT (site TCGGATACTAG)
recombinant barcode read abundance (log10): 0.173

TCGGATACTTGGGTTCTAACCTGTTGCAT (site TCGGATACTAT)
recombinant barcode read abundance (log10): 1.57

TCGGATACTTGGGTTCTAACCTGTTGCCT (site TCGGATACTAA)
recombinant barcode read abundance (log10): 0.119

TCGGATACTTGGGTTCTAACCTGTTGCCT (site TCGGATACTAC)
recombinant barcode read abundance (log10): 0.0175

TCGGATACTTGGGTTCTAACCTGTTGCCT (site TCGGATACTAG)
recombinant barcode read abundance (log10): 1.54

TCGGATACTTGGGTTCTAACCTGTTGCCT (site TCGGATACTAT)
recombinant barcode read abundance (log10): 0.0399

TCGGATACTTGGGTTCTAACCTGTTGCGT (site TCGGATACTAA)
recombinant barcode read abundance (log10): 0.0447

TCGGATACTTGGGTTCTAACCTGTTGCGT (site TCGGATACTAC)
recombinant barcode read abundance (log10): 2.05

TCGGATACTTGGGTTCTAACCTGTTGCGT (site TCGGATACTAG)
recombinant barcode read abundance (log10): 0.265

TCGGATACTTGGGTTCTAACCTGTTGCGT (site TCGGATACTAT)
recombinant barcode read abundance (log10): 1.41

TCGGATGCTTGGGTTCTAACCTGTTGCTT (site TCGAATGCTAG)
recombinant barcode read abundance (log10): 0.349

TCGGATGCTTGGGTTCTAACCTGTTGCTT (site TCGGATGCTAA)
recombinant barcode read abundance (log10): 0.901

TCGGGGACTTGGGTTCTAACCTGTTGCCG (site TCAGGGACTCT)
recombinant barcode read abundance (log10): 0.183

TCGGGGACTTGGGTTCTAACCTGTTGCCG (site TCGGGGACTCG)
recombinant barcode read abundance (log10): 0.601

TCGTACCCTTGGGTTCTAACCTGTTGCAA (site AAAATATCTAG)
recombinant barcode read abundance (log10): 0.083

TCGTACCCTTGGGTTCTAACCTGTTGCAA (site TCGTACCCTTT)
recombinant barcode read abundance (log10): 0.143

TCGTCTACTTGGGTTCTAACCTGTTGCTC (site ATCAACCCTTG)
recombinant barcode read abundance (log10): 0.117

TCGTCTACTTGGGTTCTAACCTGTTGCTC (site TCGTCTACTGA)
recombinant barcode read abundance (log10): 0.26

TCGTGCCCTTGGGTTCTAACCTGTTGCGT (site CCGTGCCCTAC)
recombinant barcode read abundance (log10): 0.0929

TCGTGCCCTTGGGTTCTAACCTGTTGCGT (site TCGTGCCCTAC)
recombinant barcode read abundance (log10): 0.14

TCGTTTCCTTGGGTTCTAACCTGTTGCAT (site AGCCAGGCTCC)
recombinant barcode read abundance (log10): 0.0113

TCGTTTCCTTGGGTTCTAACCTGTTGCAT (site TCGTTTCCTAT)
recombinant barcode read abundance (log10): 0.0275

TCTAAACCTTGGGTTCTAACCTGTTGCCT (site TCTAAACCTAG)
recombinant barcode read abundance (log10): 0.205

TCTAAACCTTGGGTTCTAACCTGTTGCCT (site TCTCAACCTAG)
recombinant barcode read abundance (log10): 0.0726

TCTAACACTTGGGTTCTAACCTGTTGCCT (site ACTAACACTAG)
recombinant barcode read abundance (log10): 0.0882

TCTAACACTTGGGTTCTAACCTGTTGCCT (site CCTAACACTAG)
recombinant barcode read abundance (log10): 0.0793

TCTAACACTTGGGTTCTAACCTGTTGCCT (site GCTAACACTAG)
recombinant barcode read abundance (log10): 0.0247

TCTAACACTTGGGTTCTAACCTGTTGCCT (site TCTAACACTAG)
recombinant barcode read abundance (log10): 0.206

TCTAAGGCTTGGGTTCTAACCTGTTGCCT (site TCAAAGGCTAG)
recombinant barcode read abundance (log10): 0.36

TCTAAGGCTTGGGTTCTAACCTGTTGCCT (site TCCAAGGCTAG)
recombinant barcode read abundance (log10): 0.108

TCTAAGGCTTGGGTTCTAACCTGTTGCCT (site TCGAAGGCTAG)
recombinant barcode read abundance (log10): 0.048

TCTAAGGCTTGGGTTCTAACCTGTTGCCT (site TCTAAGGCTAG)
recombinant barcode read abundance (log10): 0.043

TCTAAGTCTTGGGTTCTAACCTGTTGCCA (site TCTAAGTCTAG)
recombinant barcode read abundance (log10): 0.045

TCTAAGTCTTGGGTTCTAACCTGTTGCCA (site TCTAAGTCTCG)
recombinant barcode read abundance (log10): 0.144

TCTAAGTCTTGGGTTCTAACCTGTTGCCA (site TCTAAGTCTGG)
recombinant barcode read abundance (log10): 0.695

TCTAAGTCTTGGGTTCTAACCTGTTGCCA (site TCTAAGTCTTG)
recombinant barcode read abundance (log10): 0.0536

TCTACATCTTGGGTTCTAACCTGTTGCCT (site TCTACATCTAG)
recombinant barcode read abundance (log10): 0.0728

TCTACATCTTGGGTTCTAACCTGTTGCCT (site TCTACCTCTAG)
recombinant barcode read abundance (log10): 0.0374

TCTACATCTTGGGTTCTAACCTGTTGCCT (site TCTACGTCTAG)
recombinant barcode read abundance (log10): 0.0302

TCTACATCTTGGGTTCTAACCTGTTGCCT (site TCTACTTCTAG)
recombinant barcode read abundance (log10): 0.0355

TCTAGAACTTGGGTTCTAACCTGTTGCCT (site TCTAGAACTAG)
recombinant barcode read abundance (log10): 0.0829

TCTAGAACTTGGGTTCTAACCTGTTGCCT (site TCTAGACCTAG)
recombinant barcode read abundance (log10): 0.0178

TCTAGAACTTGGGTTCTAACCTGTTGCCT (site TCTAGAGCTAG)
recombinant barcode read abundance (log10): 0.0689

TCTAGAACTTGGGTTCTAACCTGTTGCCT (site TCTAGATCTAG)
recombinant barcode read abundance (log10): 0.0276

TCTAGACCTTGGGTTCTAACCTGTTGCCA (site TCTAGACCTTG)
recombinant barcode read abundance (log10): 0.0618

TCTAGACCTTGGGTTCTAACCTGTTGCCA (site TCTAGTCCTAG)
recombinant barcode read abundance (log10): 0.564

TCTATGTCTTGGGTTCTAACCTGTTGCCT (site TCTATGACTAG)
recombinant barcode read abundance (log10): 0.182

TCTATGTCTTGGGTTCTAACCTGTTGCCT (site TCTATGTCTAG)
recombinant barcode read abundance (log10): 0.107

TCTCAGGCTTGGGTTCTAACCTGTTGCAG (site TATCAGACTCT)
recombinant barcode read abundance (log10): 0.0549

TCTCAGGCTTGGGTTCTAACCTGTTGCAG (site TCTCAGGCTCT)
recombinant barcode read abundance (log10): 0.445

TCTCCTCCTTGGGTTCTAACCTGTTGCAT (site GAGGTCACTTA)
recombinant barcode read abundance (log10): 0.115

TCTCCTCCTTGGGTTCTAACCTGTTGCAT (site TCTCCTCCTAT)
recombinant barcode read abundance (log10): 0.679

TCTCGGTCTTGGGTTCTAACCTGTTGCCT (site TCACGGTCTAG)
recombinant barcode read abundance (log10): 0.71

TCTCGGTCTTGGGTTCTAACCTGTTGCCT (site TCTCGGTCTAG)
recombinant barcode read abundance (log10): 0.277

TCTCGTTCTTGGGTTCTAACCTGTTGCTA (site AGAGTAACTGT)
recombinant barcode read abundance (log10): 0.127

TCTCGTTCTTGGGTTCTAACCTGTTGCTA (site TCTCGTTCTTA)
recombinant barcode read abundance (log10): 0.102

TCTGATTCTTGGGTTCTAACCTGTTGCCG (site TCTGATTCTCG)
recombinant barcode read abundance (log10): 0.197

TCTGATTCTTGGGTTCTAACCTGTTGCCG (site TCTTATTCTAG)
recombinant barcode read abundance (log10): 0.133

TCTGATTCTTGGGTTCTAACCTGTTGCGT (site TCTAATTCTAC)
recombinant barcode read abundance (log10): 0.352

TCTGATTCTTGGGTTCTAACCTGTTGCGT (site TCTCATTCTAC)
recombinant barcode read abundance (log10): 0.00698

TCTGATTCTTGGGTTCTAACCTGTTGCGT (site TCTGATTCTAC)
recombinant barcode read abundance (log10): 1.4

TCTGATTCTTGGGTTCTAACCTGTTGCGT (site TCTTATTCTAC)
recombinant barcode read abundance (log10): 0.212

TCTGGCACTTGGGTTCTAACCTGTTGCCT (site TCCAGCACTAG)
recombinant barcode read abundance (log10): 0.205

TCTGGCACTTGGGTTCTAACCTGTTGCCT (site TCTGGCACTAG)
recombinant barcode read abundance (log10): 0.0487

TCTGGCCCTTGGGTTCTAACCTGTTGCCT (site CACCCTTCTGA)
recombinant barcode read abundance (log10): 0.124

TCTGGCCCTTGGGTTCTAACCTGTTGCCT (site TCTGGCCCTAG)
recombinant barcode read abundance (log10): 0.478

TCTGTATCTTGGGTTCTAACCTGTTGCCT (site ACTGTATCTAG)
recombinant barcode read abundance (log10): 0.28

TCTGTATCTTGGGTTCTAACCTGTTGCCT (site CCTGTATCTAG)
recombinant barcode read abundance (log10): 0.0921

TCTGTATCTTGGGTTCTAACCTGTTGCCT (site GCTGTATCTAG)
recombinant barcode read abundance (log10): 0.152

TCTGTATCTTGGGTTCTAACCTGTTGCCT (site TCTGTATCTAG)
recombinant barcode read abundance (log10): 0.614

TCTTAGACTTGGGTTCTAACCTGTTGCCG (site TCTTAGACTAG)
recombinant barcode read abundance (log10): 0.231

TCTTAGACTTGGGTTCTAACCTGTTGCCG (site TCTTAGACTCG)
recombinant barcode read abundance (log10): 0.232

TCTTAGACTTGGGTTCTAACCTGTTGCCT (site TCTTAGACTAG)
recombinant barcode read abundance (log10): 0.0224

TCTTAGACTTGGGTTCTAACCTGTTGCCT (site TCTTAGACTCG)
recombinant barcode read abundance (log10): 0.0132

TCTTAGACTTGGGTTCTAACCTGTTGCTT (site TCTTAGACTAA)
recombinant barcode read abundance (log10): 0.17

TCTTAGACTTGGGTTCTAACCTGTTGCTT (site TGTTGGACTAA)
recombinant barcode read abundance (log10): 0.0581

TCTTCCACTTGGGTTCTAACCTGTTGCCT (site ACTTCCACTAG)
recombinant barcode read abundance (log10): 0.0827
